# Read-outs that look alike come from different tables or passages of the source.
# What was measured:
# [1] = system: Mouse G3 MB Myc1 neurospheres; assay: 72 h dose response, CellTiter-Glo, mouse G3 MB neurospheres; format: cell-based; conditions: Mus musculus, Fig. 2a, read-out: EC50
# Experimental: In the Discovery Phase, the initial studies included the screen of a library of 9 compounds against epigenetic regulators at a single concentration and a dose-response on G3 MB, EP, and CPC tumor cells, as well as HEPG2 and BJ (Fig. 1). The library and dose response studies are described in the Supplementary Material.
# Briefly, cells (see Supplementary Table S2 for cell identity) were plated in 384-well plates (Corning) in 30 µL of supplemented neurobasal medium by using an automated plate filler (Wellmate, Matrix). After 24 hr, 28 nL of compound was transferred via pin tool, resulting in a final drug concentration of approximately 4 nM to 10 µM. After 72 hr of treatment, CellTiter-Glo reagent (Promega) was added, and the luminescence signal was measured using an automated Envision plate reader (Perkin-Elmer). Luminescence data were normalized by log10-transformation prior to calculating the percentage of inhibition using the following equation: 100 × (negative control mean − compound value)/(negative control mean − positive control mean). Our negative control represents cells treated with 0.1% DMSO with 0% inhibition. Cells treated with 35 µM cycloheximide (G3 MB tumor spheres) or 10 µM panobinostat (EP and CPC cells) were used as positive controls with 100% inhibition. The response of cells to the compounds were normalized to that of the positive controls present in each plate screened, shown in the Y axis of the dose-response curve. […] Unless otherwise reported, the y-axis for each dose response curve in the figures was independently normalized to the range from 0 to 1 and therefore reported as ‘relative growth inhibition’. High through put assay data were analyzed by using our in-house Robust Interpretation of Screening Experiments (RISE) application that was written in Pipeline Pilot (Accelrys, v. 8.5) and R (R Development Core Team).
# [2] = system: Patient-derived xenograft of a human G3 medulloblastoma, TB-12-5950; assay: 72 h dose response, CellTiter-Glo, human G3 MB PDX cells; format: cell-based; conditions: Fig. 2b
# G3 MB (Myc1) cells = assay: FdCyd wash-out experiment, G3 MB; format: cell-based; conditions: Mus musculus
# Experimental: (§1) Myc1 and Myc2 G3 MB, EP, and CPC tumor cells (Supplementary Table 1) were plated in 96-well plates. After 24 h, 128 nL of a dilution series of a selected drug was transferred creating a final drug concentration of 0.5–9.3 µM. To assess the optimal exposure time, the drug was removed and replaced with fresh medium after 1, 3, 6, 10, 24, or 72 h (“wash-out”).
# (§2) In both experiments, 72 h after drug addition to cells, we added 100 µL of CellTiter-Glo reagent (Promega), and we read the luminescence signal. Data analysis used GraphPad Prism software (Version 5.04).
# EP cells [3] = assay: FdCyd wash-out experiment, EP; format: cell-based; conditions: Mus musculus
# Experimental: as §1, §2
# CPC cells = assay: FdCyd wash-out experiment, CPC; format: cell-based; conditions: Mus musculus
# Experimental: as §1, §2
# EP cells [4] = assay: Effect of deoxycytidine on FdCyd efficacy, 72 h, CellTiter-Glo; format: cell-based; conditions: Mus musculus; FdCyd alone, 72 h exposure
# Experimental: To test the effect of deoxycytidine on FdCyd efficacy, EP cells were plated in 96 well plates. After 24 h, FdCyd was added at final concentrations ranging from 0.1 nM to 50 μM alone or together with fixed concentration of deoxycytidine (Sigma) of 0.0122, 0.195, 6.25 or 100 μM.
# as §2
# [5] = Plasma pharmacokinetics in non-tumor-bearing CD1 nude mice; format: in vivo, mouse; conditions: for AUC(0-inf): read-out: plasma exposure (AUC0-Inf), mean ± SD
# Experimental: Once a drug passed the Discovery Phase it was moved to the Pre-Clinical Phase, which included PK and PD studies (Fig. 1). The details of the plasma PK and cerebral microdialysis studies are provided in the Supplemental Materials.
# An initial, detailed plasma PK study was performed in non–tumor-bearing CD1 nude mice to define drug disposition in our mouse model of interest, determine the plasma systemic exposure, and when possible, to compare the systemic exposure in the mouse with that achievable in patients at clinically relevant dosages. Dosing solutions were prepared in 5% dextrose for injection at concentrations providing a standard final dosing volume of 10 mL/kg (i.e., 2.5 mg/mL FdCyd and 10 mg/mL THU). Plasma samples were separated by centrifugation and stored at −80°C until analysis using a sensitive and specific liquid chromatography–tandem mass spectrometry (LC-MS/MS) method to determine FdCyd concentrations. Plasma samples were collected by using a sparse sampling design in which 2 - 3 blood samples per mouse were collected in tubes containing zebularine (final concentration in blood sample, 1 mg/mL) to inhibit cytidine deaminase activity in vitro.
# An appropriate pharmacokinetic model was fit to the observed concentration-time data obtained from the initial PK studies (IP and IV administration) by using non-linear mixed-effect modeling (NONMEM 7.2, ICON Development Solutions). Using D-optimality implemented in ADAPT 5, we use the data from the plasma pharmacokinetic study to define a pharmacokinetic limited sampling model (LSM), which will be used in subsequent microdialysis studies.
# [6] = system: mouse G3 MB tumorspheres (Myc1, Myc2); assay: In vitro apoptosis, Annexin V and DAPI FACS; format: cell-based; conditions: 4 nM FdCyd alone, 24, 48, 72 h, compared to DMSO-treated cells
# Description: (§3) See Supplementary Material for more details.
# (§4) Tumors were fixed in 10% formalin.
# [7] = system: Trp53−/−, Cdkn2c−/− neurospheres; assay: In vitro cell cycle and apoptosis, control neurospheres; format: cell-based, mouse; conditions: 4 nM FdCyd
# Description: as §3, §4
# EP tumors [8] = assay: In vivo proliferation, Ki67 immunohistochemistry, EP
# Experimental: (§5) To assess apoptosis and proliferation in vivo, G3 MB, EP, and CPC tumors were isolated from mice 3, 8, or 24 h after treatment with compound or vehicle, fixed in 10 % formalin, and sections were immunostained with antibodies to Caspase 3 (apoptosis) or Ki67 (proliferation).
# (§6) In vivo apoptosis and proliferation were performed on G3 MB, EP, and CPC tumors isolated from mice 3, 8, or 24 hr after treatment with compound or vehicle (saline). Tumors were fixed in 10% formalin. Sections (4-micron) were immunostained with antibodies to Caspase 3 (CP229C, BioCare Medical, Concorde, CA) to detect apoptotic cells, or Ki67 (ThermoShandon, RM9106) to detect proliferation. The number of positive cells for each stain was normalized to the total number of cells.
# (§7) Mice bearing G3 MB, EP, or CPC tumors were harvested 3, 8, or 24 hr after IP injection of vehicle (V) or FdCyd + THU (FdCyd). Fixed brains were sliced and stained for Ki67. The percentage of positive cells was calculated based on total number of cells.
# EP tumors [9] = assay: In vivo apoptosis, Caspase 3 immunohistochemistry, EP
# Experimental: as §5, §6
# Mice bearing G3 MB, EP, or CPC tumors were harvested 3, 8, or 24 hr after IP injection of vehicle (V) or FdCyd + THU (FdCyd). Fixed brains were sliced and stained for caspase 3. The percentage of positive cells was calculated based on total number of cells. SD= standard deviation.
# G3 MB tumors = assay: In vivo proliferation, Ki67 immunohistochemistry, G3 MB
# Experimental: as §5, §6, §7
# [10] = 1 h exposure then wash-out, read at 72 h, read-out: EC50 after 1 h FdCyd exposure
# [11] = 72 h, wash-out, 1st of 4 values listed for the remaining time points (3, 6, 10, 24, 72 h), read-out: EC50, longer exposure
# [12] = 72 h, wash-out, 2nd of 4 values listed for the remaining time points (3, 6, 10, 24, 72 h), read-out: EC50, longer exposure
# [13] = 72 h, wash-out, 3rd of 4 values listed for the remaining time points (3, 6, 10, 24, 72 h), read-out: EC50, longer exposure
# [14] = 72 h, wash-out, 4th of 4 values listed for the remaining time points (3, 6, 10, 24, 72 h), read-out: EC50, longer exposure
smiles,measurement,setting,value
"Nc1nc(=O)n([C@H]2C[C@H](O)[C@@H](CO)O2)cc1F [FdCyd, 5-fluoro-2′-deoxycytidine]",EC50,[1],1.7 nM
same,EC50,[2],1 nM
same,EC50,G3 MB (Myc1) cells; [10],8 ± 2 nM
same,EC50,G3 MB (Myc1) cells; [11],5 nM
same,EC50,G3 MB (Myc1) cells; [12],4 nM
same,EC50,G3 MB (Myc1) cells; [13],2.3 nM
same,EC50,G3 MB (Myc1) cells; [14],1 nM
same,EC50,EP cells [3]; [10],22 ± 8 nM
same,EC50,EP cells [3]; [11],17 nM
same,EC50,EP cells [3]; [12],13 nM
same,EC50,EP cells [3]; [13],3 nM
same,EC50,EP cells [3]; [14],0.7 nM
same,EC50,CPC cells; [10],63 ± 28 nM
same,EC50,CPC cells; [11],58 nM
same,EC50,CPC cells; [12],44 nM
same,EC50,CPC cells; [13],31 nM
same,EC50,CPC cells; [14],1 nM
same,EC50,EP cells [4],50 nM
same,FdCyd exposure in mice relative to humans,"[5]; CD1 nude mice 25 mg/kg vs humans at RP2D 100 mg/m^2, human PK ref 26",approximately 4 times higher
same,AUC(0-inf),"[5]; CD1 nude, mouse, plasma, FdCyd 25 mg/kg with THU 100 mg/kg, IP",112 ± 6.55 µM·h
same,AUC(0-inf),"[5]; CD1 nude, mouse, plasma, FdCyd 25 mg/kg with THU 100 mg/kg, IV",114 ± 4.77 µM·h
same,clearance,"[5]; CD1 nude, mouse, plasma, FdCyd 25 mg/kg with THU 100 mg/kg, NONMEM, IV and IP data, read-out: systemic clearance, population mean (standard error of estimation) (converted)",15 mL/min/kg
same,Vd,"[5]; CD1 nude, mouse, plasma, FdCyd 25 mg/kg with THU 100 mg/kg, NONMEM, IV and IP data, read-out: volume of distribution, population mean (standard error of estimation)",0.62 L/kg
same,murine plasma exposure compared with RP2D in humans,"[5]; IP 6 mg/kg FdCyd with 100 mg/kg THU, confirmatory PK study",comparable
same,number of apoptotic cells (Annexin V),[6],increased
same,effect on cell cycle and apoptosis of control neurospheres,[7],without affecting control neurospheres
same,Ki67 % of positive cells,"EP tumors [8]; 3 hr after IP injection of FdCyd + THU, vehicle 81.79",77.06%
same,Ki67 % of positive cells,"EP tumors [8]; 8 hr after IP injection of FdCyd + THU, vehicle 80.10",72.88%
same,Ki67 % of positive cells,"EP tumors [8]; 24 hr after IP injection of FdCyd + THU, vehicle 68.41",72.62%
same,Caspase-3 % of positive cells,"EP tumors [9]; 3 hr after IP injection of FdCyd + THU, vehicle 0.9975",1.416%
same,Caspase-3 % of positive cells,"EP tumors [9]; 8 hr after IP injection of FdCyd + THU, vehicle 1.110",1.210%
same,Caspase-3 % of positive cells,"EP tumors [9]; 24 hr after IP injection of FdCyd + THU, vehicle 1.427",1.030%
same,Ki67 % of positive cells,"G3 MB tumors; 3 hr after IP injection of FdCyd + THU, vehicle 87.77",84.97%
same,Ki67 % of positive cells,"G3 MB tumors; 8 hr after IP injection of FdCyd + THU, vehicle 78.11",76.50%
same,Ki67 % of positive cells,"G3 MB tumors; 24 hr after IP injection of FdCyd + THU, vehicle 85.15",77.15%
